In paper PMC4506051, “Pharmacokinetic Profiles of Active Ingredients and Its Metabolites Derived from Rikkunshito, a Ghrelin Enhancer, in Healthy Japanese Volunteers: A Cross-Over, Randomized Study” (PLoS ONE, 2015):
One block for each compound: values may come before it.

Assays:
[1] = Dose proportionality (linearity) test by power model for C max and AUC0-last; settings: for Dose proportionality test using power model, Inference: linear when 90% CI of β included 1, CIlower ≥0.8, and CIupper ≤1.25; for Dose proportionality test using power model, β: rikkunshito 2.5, 5.0 or 7.5 g
Description: The dose proportionality was analyzed via a power model [21, 22]. […] Evaluation of linearity of the dosage-exposure relationship was conducted with Phoenix WinNonlin and SAS 9.2 (SAS Institute, Inc., Cary, NC).

[2] = Stability of ingredients in gastric pH solution (pH 1.2, 37°C); type: physicochemical; settings: pH 1.2
Description: Rikkunshito gradually dissolved in acidic solution (pH 1.2) at 37°C, and the concentration of atractylodin after adding 0.25, 0.5, 1, and 2 h was measured by gas chromatography–mass spectrometry.

[3] = Method validation: freeze-thaw stability in plasma
[4] = Exploratory trial: amount of rikkunshito ingredients in urine; type: in vivo, human; settings: mean ± S.D., n = 4; for Amount in urine, 4–8 h: 4–8 h after single oral rikkunshito 7.5 g
How it was run: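 Subjects took single oral 7.5 g rikkunshito; urine collected pre-dose and 0–4 h and 4–8 h post-dose, stored at −80 °C or lower. Synephrine quantified by LC–MS/MS after plate cleanup with erythromycin IS; other ingredients after β-glucuronidase (2 h, 37 °C) and HLB solid-phase extraction.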

[5] = Formation of ingredients derived from rikkunshito in formulation, blood, and urine (S11 Table summary); settings: after rikkunshito administration, per ingredient in the formulation; for Formation of ingredients: form found in Urine: BQL = below the quantification limit
[6] = Method validation: short-term stability in plasma
[7] = Method validation: long-term stability in plasma
5-HT2BR = system: 5-HT2BR; design: method as in PMID 18439428; settings: cited from earlier work
[8] = Exploratory trial: ingredients in β-glucuronidase (enzyme)-treated plasma; type: in vivo, human; settings: β-glucuronidase-treated, rikkunshito 7.5 g, mean ± S.D., n = 4
Description: In the first exploratory trial, 20-mL blood samples were collected from the cutaneous vein in the subjects’ forearm via a blood sampling tube that contained heparin at 0 (preadministration), 0.5, 1, 2, 4, and 8 h after a single oral administration of rikkunshito (Lot E24652). The dose of rikkunshito used in this trial was 7.5 g/day, which is the clinical daily dose, to widely explore rikkunshito-derived ingredients that enter the blood. Along with plasma, urine samples were collected at three points: between dinner and bedtime (preadministration), between 0 and 4 h after administration, and between 4 and 8 h after administration. The blood was immediately centrifuged at 1700 ×g for 10 min to obtain plasma. Plasma and urine fractions were stored at −80°C or lower until analysis.
For quantification of 30 ingredients other than atractylodin and synephrine, 25 µL of standard solution or methanol was added to 500 µL plasma or urine samples followed by mixing. Atractylenolide III or digoxin (IS) solution (50 μL) was added to the solutions followed by mixing. For urine, 400 µL of blank plasma was added to the solutions. Ammonium acetate solution (100 mM, 100 or 400 µL) was added to the solutions followed by mixing. For enzymatic treatment, plasma and urine samples were incubated with β-glucuronidase (100 units in 100 mM ammonium acetate) for 2 h at 37°C. A solid-phase cartridge (OASIS HLB, 30 mg/1cc, Waters) was conditioned with methanol and 10 mM ammonium acetate solution, and the samples were loaded onto the cartridge. The cartridge was washed water : methanol (9:1, v/v), and 1.5 mL of methanol and 30 µL of propylene glycol were added to the cartridge to elute the analytes. The mixtures were dried at 25°C under a stream of nitrogen gas. Furthermore, 100 μL of 10 mM ammonium acetate : methanol (8:2, v/v) was added to the dried samples followed by mixing and sonication. The solutions were filtered (0.22 µm) and followed by injection into the LC–MS/MS system. […] Those analytical conditions are summarized in S2 Table and S3 Table.

[9] = Method validation: stability in standard, stock and working solution

Compound: O=C1C[C@@H](c2ccc(O)cc2)Oc2cc(O)cc(O)c21 [Naringenin]
Dose proportionality test using power model, Inference ([1]; AUC0-last): Nonlinear
Dose proportionality test using power model, β ([1]; AUC0-last): 1.02
Dose proportionality test using power model, Inference ([1]; Cmax): Nonlinear
Dose proportionality test using power model, β ([1]; Cmax): 1.06
Stability in gastric pH solution, Quantitative value ([2]; 0.5 h): 2030 ng/mL
Stability in gastric pH solution, Quantitative value ([2]; 1 h): 2140 ng/mL
Stability in gastric pH solution, Quantitative value ([2]; 2 h): 1990 ng/mL
Freeze-thaw stability, RR ([3]; −30°C to −10°C, 3 cycles, higher concentration (800 / 320 / 4000 pg/mL)): 96.7%
Freeze-thaw stability, RR ([3]; −30°C to −10°C, 3 cycles, lower concentration (20 / 8 / 100 pg/mL)): 90.6%
Amount in urine, 0–4 h ([4]; 0–4 h after single oral rikkunshito 7.5 g): BQL
Amount in urine, 4–8 h [4]: 2380 ± 2940 ng
Amount in urine, 4–8 h ([4]; listed as naringenin): 2,380 ng
Amount in urine, Pre ([4]; preadministration (between dinner and bedtime)): BQL
Formation of ingredients: form found in Blood [5]: Naringenin Conjugate metabolites of naringenin^a
Formation of ingredients: form found in Urine [5]: Naringenin
Short-term stability, RR ([6]; naringenin 100 pg/mL, room temperature, 24 h as printed in the cell): 113.8%
Short-term stability, RR ([6]; naringenin 4000 pg/mL, room temperature, 24 h as printed in the cell): 112.2%
Short-term stability, RR ([6]; room temperature (1°C to 30°C) 4 h, higher concentration (800 / 320 / 4000 pg/mL)): 92.8%
Short-term stability, RR ([6]; room temperature (1°C to 30°C) 4 h, lower concentration (20 / 8 / 100 pg/mL)): 102.1%
Long-term stability, RR ([7]; naringenin 100 pg/mL, freezer −30°C to −10°C, 22 days): 101.9%
Long-term stability, RR ([7]; naringenin 100 pg/mL, freezer, 31 days): 98.1%
Long-term stability, RR ([7]; naringenin 100 pg/mL, freezer, 220 days): 86.8%
Long-term stability, RR ([7]; naringenin 4000 pg/mL, freezer, 22 days): 95.8%
Long-term stability, RR ([7]; naringenin 4000 pg/mL, freezer, 31 days): 95.8%
Long-term stability, RR ([7]; naringenin 4000 pg/mL, freezer, 220 days): 85.2%
5-HT2BR inhibitory/antagonistic activity (5-HT2BR): most potent 5-HT2BR antagonistic activity among all rikkunshito ingredients
concentration at 0.5 h ([8]; human, plasma, oral, 0.5 h): 0.311 ± 0.211 ng/mL
concentration at 1 h ([8]; human, plasma, oral, 1 h): 0.261 ± 0.188 ng/mL
concentration at 2 h ([8]; human, plasma, oral, 2 h, read-out: Plasma concentration in enzyme-treated plasma, 2 h): 0.351 ± 0.311 ng/mL
concentration at 4 h ([8]; human, plasma, oral, 4 h, read-out: Plasma concentration in enzyme-treated plasma, 4 h): 0.861 ± 0.749 ng/mL
concentration at 8 h ([8]; human, plasma, oral, 8 h, read-out: Plasma concentration in enzyme-treated plasma, 8 h): 0.156 ± 0.234 ng/mL
Plasma concentration in enzyme-treated plasma, 0 h ([8]; 0 h (preadministration)): BQL
Working solution stability, RR ([9]; refrigerator 128 days, higher concentration (10 / 4 / 50 ng/mL)): 99.8%
Working solution stability, RR ([9]; refrigerator 128 days, lower concentration (0.1 / 0.04 / 0.5 ng/mL)): 102.6%
Stock solution stability, RR ([9]; refrigerator (1°C to 8°C) 54 days, 0.1 mg/mL (naringenin 0.5 mg/mL)): 54 days: 97.5%
Stock solution stability, RR ([9]; refrigerator (1°C to 8°C) 129 days, 0.1 mg/mL (naringenin 0.5 mg/mL)): 129 days: 96.7%

Dose proportionality test using power model, β ([1]; AUC0-last): 0.979
Dose proportionality test using power model, β ([1]; Cmax): 0.819
Short-term stability, RR ([6]; 1600 pg/mL, at room temperature for 4 h): 89.0%
Short-term stability, RR ([6]; 1600 pg/mL, at room temperature for 25 h): 90.2%
Short-term stability, RR ([6]; 64000 pg/mL, at room temperature for 4 h): 98.9%
Short-term stability, RR ([6]; 64000 pg/mL, at room temperature for 25 h): 105.0%
Long-term stability, RR ([7]; 1600 pg/mL, freezer (−30°C to −10°C) for 13 days): 102.6%
Long-term stability, RR ([7]; 1600 pg/mL, freezer (−30°C to −10°C) for 39 days): 108.3%
Long-term stability, RR ([7]; 1600 pg/mL, freezer (−30°C to −10°C) for 228 days): 113.5%
Long-term stability, RR ([7]; 64000 pg/mL, freezer (−30°C to −10°C) for 13 days): 113.1%
Long-term stability, RR ([7]; 64000 pg/mL, freezer (−30°C to −10°C) for 39 days): 104.4%
Long-term stability, RR ([7]; 64000 pg/mL, freezer (−30°C to −10°C) for 228 days): 109.2%
Working solution stability, RR ([9]; 8 ng/mL, refrigerator (1°C to 8°C) for 53 days): 108.4%
Working solution stability, RR ([9]; 800 ng/mL, refrigerator (1°C to 8°C) for 53 days): 100.7%
Stock solution stability, RR ([9]; 0.8 mg/mL, refrigerator (1°C to 8°C) for 54 days): 54 days: 100.0%
Stock solution stability, RR ([9]; 0.8 mg/mL, refrigerator (1°C to 8°C) for 129 days): 129 days: 100.0%
Compound: CC1(C)[C@@H](O)CC[C@]2(C)[C@H]3C(=O)C=C4[C@@H]5C[C@@](C)(C(=O)O)CC[C@]5(C)CC[C@@]4(C)[C@]3(C)CC[C@@H]12 [18β-Glycyrrhetinic acid]

Compound: COc1ccc(-c2cc(=O)c3c(OC)c(OC)c(OC)c(OC)c3o2)cc1OC [Nobiletin]
Dose proportionality test using power model, Inference ([1]; AUC0-last): Nonlinear
Dose proportionality test using power model, β ([1]; AUC0-last): 0.604
Dose proportionality test using power model, Inference ([1]; Cmax): Nonlinear
Dose proportionality test using power model, β ([1]; Cmax): 0.701
Stability in gastric pH solution, Quantitative value ([2]; 0.5 h): 18.1 ng/mL
Stability in gastric pH solution, Quantitative value ([2]; 1 h): 21.5 ng/mL
Stability in gastric pH solution, Quantitative value ([2]; 2 h): 19.6 ng/mL
Freeze-thaw stability, RR ([3]; 8 pg/mL, deep freezer (−30°C to −10°C), after 3 cycles of freeze-thaw): 86.0%
Freeze-thaw stability, RR ([3]; 320 pg/mL, deep freezer (−30°C to −10°C), after 3 cycles of freeze-thaw): 107.9%
Formation of ingredients: form found in Blood [5]: Nobiletin
Formation of ingredients: form found in Urine [5]: BQL
Short-term stability, RR ([6]; 8 pg/mL, at room temperature for 4 h): 106.5%
Short-term stability, RR ([6]; 8 pg/mL, at room temperature for 25 h): 114.3%
Short-term stability, RR ([6]; 320 pg/mL, at room temperature for 4 h): 109.7%
Short-term stability, RR ([6]; 320 pg/mL, at room temperature for 25 h): 92.5%
Long-term stability, RR ([7]; 8 pg/mL, freezer (−30°C to −10°C) for 13 days): 91.2%
Long-term stability, RR ([7]; 8 pg/mL, freezer (−30°C to −10°C) for 39 days): 88.0%
Long-term stability, RR ([7]; 8 pg/mL, freezer (−30°C to −10°C) for 228 days): 89.9%
Long-term stability, RR ([7]; 320 pg/mL, freezer (−30°C to −10°C) for 13 days): 114.0%
Long-term stability, RR ([7]; 320 pg/mL, freezer (−30°C to −10°C) for 39 days): 114.3%
Long-term stability, RR ([7]; 320 pg/mL, freezer (−30°C to −10°C) for 228 days): 103.2%
5-HT2BR inhibitory/antagonistic activity (5-HT2BR): most potent 5-HT2BR antagonistic activity among all rikkunshito ingredients
Working solution stability, RR ([9]; 0.04 ng/mL, refrigerator (1°C to 8°C) for 53 days): 95.0%
Working solution stability, RR ([9]; 0.04 ng/mL, refrigerator (1°C to 8°C) for 128 days): 89.0%
Working solution stability, RR ([9]; 4 ng/mL, refrigerator (1°C to 8°C) for 53 days): 102.6%
Working solution stability, RR ([9]; 4 ng/mL, refrigerator (1°C to 8°C) for 128 days): 109.6%
Stock solution stability, RR ([9]; 0.1 mg/mL, refrigerator (1°C to 8°C) for 54 days): 54 days: 99.8%
Stock solution stability, RR ([9]; 0.1 mg/mL, refrigerator (1°C to 8°C) for 129 days): 129 days: 89.1%
